Structures can show the parent of a compound that is named as a salt.
Tests used:
Assay type in all cases: cell-based
[1] = system: P.aeruginosa; assay: Quantitative germ count (re-isolation, surface method) after inoculating the test preparation; details: Ausgangskeimzahl 2,7 x 10^5 KBE/ml
Source text: (§1) Escherichia (E.coli) Staphylococcus (S.aureus) Streptococcus (Sc.) Pneumoniae Pseudomonas (P.aeruginosa) Staphylococcus (S. epidermidis) Haemophilus (H. influenzae)
(§2) Die verschiedenen Testkeime wurde jeweils aus einem Lyophilisat in NaCl-Peptonpuffer homogenisiert und auf Caseinpepton-Sojymehlpepton. (Caso-) Agar (Fa. bioMérieux; Art. Nr. 43019) bez. Kochblut-Agar (Fa. bioMérieux; Art. Nr. 43109) subkultiviert. Die Teststämme wurden vor Versuchsbeginn durch Erstellen eines biochemischen Profils mittels ATB/Vitek-System (Fa. bioMérieux, Nürtingen) auf Reinheit und Identität überprüft.
(§3) Die Ausgangskeimzahl wurde im Oberflächenverfahren mit Hilfe eines Spiralplaters (Fa. Meintrup, Lähden) ermittelt und ist im einzelnen den Tabellen 1-12 zu entnehmen.
(§4) Die verschiedenen Testsubstanzen a. bis j. wurden jeweils zu 5 ml in sterile Zentrifugenröhrchen abgefüllt und mit ca. 10^5 KBE^*/ml (* = koloniebildende Einheiten) der oben genannten Testkeime kontaminiert. Pro Substanz wurde für jeden Testkeim und jede zu prüfende Testzeit ein separater Ansatz angeimpft, d.h.10 Testsubstanzen zu jeweils 7 Testzeiten und 6 Testkeime (= insgesamt 502 Testansätze). Nach 2, 6, 8, 24, 32, 48 und 72 Stunden wurde dann der jeweilige Testansatz 10 Minuten bei 3000 rpm abzentrifugiert. Der Überstand wurde dekantiert und das Pellet in 5 ml NaCl Peptonpuffer aufgenommen und resuspendiert. Die Suspension wurde erneut 10 Minuten bei 3000 rpm abzentrifugiert und 5 ml NaCl-Peptonpuffer aufgenommen und mittels Vortex homogenisiert.
(§5) Die anschließende Keimzahlbestimmung erfolgte im Oberflächenverfahren durch Ausspiralisieren eines […] Aliquots auf Caso-Agar bzw. für H. influenzae auf Kochblut-Agar. Die Platten wurden bei 33±2°C für max. 4 Tage bebrütet. Die Nachweisgrenze des Verfahrens liegt bei 100 KBE/ml.

[2] = system: S.epidermidis; assay: as above; details: Ausgangskeimzahl 2,1 x 10^5 KBE/ml
Source text: as §1, §2, §3, §4, §5

[3] = system: S.epidermidis; assay: Qualitative examination: enrichment of the inoculated test preparation in broth
Source text: as §1, §2
as §4, with “Nach 2, 6, 8, 24, 32, 48 und 72 Stunden wurde dann der jeweilige Testansatz 10 Minuten bei 3000 rpm abzentrifugiert.” left out
(§6) Jeweils 2 ml der Testansätze wurden in 20 ml Caso-Bouillon oder für H. influenzae, in Fildes-Medium der Firma Becton Dickinson, ARt. Nr. 0349-739, angereichert und ebenfalls maximal 4 Tage bei 33± 2°C bebrütet. Ein negatives Ergebnis der Anreicherung belegt die Elimination der inokulierten Keime.

[4] = system: S.aureus; assay: as above
Source text: as §1, §2
as §4, with “Nach 2, 6, 8, 24, 32, 48 und 72 Stunden wurde dann der jeweilige Testansatz 10 Minuten bei 3000 rpm abzentrifugiert.” left out
as §6

[5] = system: E.coli; assay: as above
Source text: as §1, §2
as §4, with “Nach 2, 6, 8, 24, 32, 48 und 72 Stunden wurde dann der jeweilige Testansatz 10 Minuten bei 3000 rpm abzentrifugiert.” left out
as §6

[6] = system: Sc. pneumoniae; assay: as above
Source text: as §1, §2
as §4, with “Nach 2, 6, 8, 24, 32, 48 und 72 Stunden wurde dann der jeweilige Testansatz 10 Minuten bei 3000 rpm abzentrifugiert.” left out
as §6

[7] = system: H.influenzae; assay: Quantitative germ count (re-isolation, surface method) after inoculating the test preparation; details: Ausgangskeimzahl 2,8 x 10^5 KBE/ml
Source text: as §1, §2, §3
as §4, with “Nach 2, 6, 8, 24, 32, 48 und 72 Stunden wurde dann der jeweilige Testansatz 10 Minuten bei 3000 rpm abzentrifugiert.” left out
as §5

[8] = system: S.aureus; assay: as above; details: Ausgangskeimzahl 2,6 x 10^5 KBE/ml
Source text: as §1, §2, §3
as §4, with “Nach 2, 6, 8, 24, 32, 48 und 72 Stunden wurde dann der jeweilige Testansatz 10 Minuten bei 3000 rpm abzentrifugiert.” left out
as §5

[9] = system: E.coli; assay: as above; details: Ausgangskeimzahl 2,7 x 10^5 KBE/ml
Source text: as §1, §2, §3
as §4, with “Nach 2, 6, 8, 24, 32, 48 und 72 Stunden wurde dann der jeweilige Testansatz 10 Minuten bei 3000 rpm abzentrifugiert.” left out
as §5

[10] = system: Sc. pneumoniae; assay: as above; details: Ausgangskeimzahl 3,7 x 10^5 KBE/ml
Source text: as §1, §2, §3
as §4, with “Nach 2, 6, 8, 24, 32, 48 und 72 Stunden wurde dann der jeweilige Testansatz 10 Minuten bei 3000 rpm abzentrifugiert.” left out
as §5

[11] = system: P.aeruginosa; assay: Qualitative examination: enrichment of the inoculated test preparation in broth
Source text: as §1, §2, §4, §6

O=C(O)c1cn(C2CC2)c2cc(N3CCNCC3)c(F)cc2c1=O [Ciprofloxacin HCl 0,35 Gew.-%, Ciprofloxacin HCl, reference compound]
<100 KBE/ml: Ergebnis der Reisolierung (in KBE/ml) ([1]; 2 h after inoculation) | Ergebnis der Reisolierung (in KBE/ml) ([1]; 4 h after inoculation) | Ergebnis der Reisolierung (in KBE/ml) ([1]; 6 h after inoculation) | Ergebnis der Reisolierung (in KBE/ml) ([1]; 8 h after inoculation) | Ergebnis der Reisolierung (in KBE/ml) ([1]; 24 h after inoculation) | Ergebnis der Reisolierung (in KBE/ml) ([1]; 32 h after inoculation) | Ergebnis der Reisolierung (in KBE/ml) ([1]; 48 h after inoculation) | Ergebnis der Reisolierung (in KBE/ml) ([1]; 72 h after inoculation) | Ergebnis der Reisolierung (in KBE/ml) ([2]; 2 h after inoculation) | Ergebnis der Reisolierung (in KBE/ml) ([2]; 4 h after inoculation) | Ergebnis der Reisolierung (in KBE/ml) ([2]; 6 h after inoculation) | Ergebnis der Reisolierung (in KBE/ml) ([2]; 8 h after inoculation) | Ergebnis der Reisolierung (in KBE/ml) ([2]; 24 h after inoculation) | Ergebnis der Reisolierung (in KBE/ml) ([2]; 32 h after inoculation) | Ergebnis der Reisolierung (in KBE/ml) ([2]; 48 h after inoculation) | Ergebnis der Reisolierung (in KBE/ml) ([2]; 72 h after inoculation) | Ergebnis der Reisolierung (in KBE/ml) ([7]; 2 h after inoculation) | Ergebnis der Reisolierung (in KBE/ml) ([7]; 4 h after inoculation) | Ergebnis der Reisolierung (in KBE/ml) ([7]; 6 h after inoculation) | Ergebnis der Reisolierung (in KBE/ml) ([7]; 8 h after inoculation) | Ergebnis der Reisolierung (in KBE/ml) ([7]; 24 h after inoculation) | Ergebnis der Reisolierung (in KBE/ml) ([7]; 32 h after inoculation) | Ergebnis der Reisolierung (in KBE/ml) ([7]; 48 h after inoculation) | Ergebnis der Reisolierung (in KBE/ml) ([7]; 72 h after inoculation) | Ergebnis der Reisolierung (in KBE/ml) ([8]; 2 h after inoculation) | Ergebnis der Reisolierung (in KBE/ml) ([8]; 4 h after inoculation) | Ergebnis der Reisolierung (in KBE/ml) ([8]; 6 h after inoculation) | Ergebnis der Reisolierung (in KBE/ml) ([8]; 24 h after inoculation) | Ergebnis der Reisolierung (in KBE/ml) ([8]; 32 h after inoculation) | Ergebnis der Reisolierung (in KBE/ml) ([8]; 48 h after inoculation) | Ergebnis der Reisolierung (in KBE/ml) ([8]; 72 h after inoculation) | Ergebnis der Reisolierung (in KBE/ml) ([9]; 2 h after inoculation) | Ergebnis der Reisolierung (in KBE/ml) ([9]; 4 h after inoculation) | Ergebnis der Reisolierung (in KBE/ml) ([9]; 6 h after inoculation) | Ergebnis der Reisolierung (in KBE/ml) ([9]; 8 h after inoculation) | Ergebnis der Reisolierung (in KBE/ml) ([9]; 24 h after inoculation) | Ergebnis der Reisolierung (in KBE/ml) ([9]; 32 h after inoculation) | Ergebnis der Reisolierung (in KBE/ml) ([9]; 48 h after inoculation) | Ergebnis der Reisolierung (in KBE/ml) ([9]; 72 h after inoculation) | Ergebnis der Reisolierung (in KBE/ml) ([10]; 2 h after inoculation) | Ergebnis der Reisolierung (in KBE/ml) ([10]; 4 h after inoculation) | Ergebnis der Reisolierung (in KBE/ml) ([10]; 6 h after inoculation) | Ergebnis der Reisolierung (in KBE/ml) ([10]; 8 h after inoculation) | Ergebnis der Reisolierung (in KBE/ml) ([10]; 24 h after inoculation) | Ergebnis der Reisolierung (in KBE/ml) ([10]; 32 h after inoculation) | Ergebnis der Reisolierung (in KBE/ml) ([10]; 48 h after inoculation) | Ergebnis der Reisolierung (in KBE/ml) ([10]; 72 h after inoculation)
-: Ergebnis der Reisolierung qualitiativ (+/-) nach Anreicherung ([3]; 8 h after inoculation) | Ergebnis der Reisolierung qualitiativ (+/-) nach Anreicherung ([3]; 24 h after inoculation) | Ergebnis der Reisolierung qualitiativ (+/-) nach Anreicherung ([3]; 32 h after inoculation) | Ergebnis der Reisolierung qualitiativ (+/-) nach Anreicherung ([3]; 48 h after inoculation) | Ergebnis der Reisolierung qualitiativ (+/-) nach Anreicherung ([3]; 72 h after inoculation) | Ergebnis der Reisolierung qualitiativ (+/-) nach Anreicherung ([4]; 24 h after inoculation) | Ergebnis der Reisolierung qualitiativ (+/-) nach Anreicherung ([4]; 32 h after inoculation) | Ergebnis der Reisolierung qualitiativ (+/-) nach Anreicherung ([4]; 48 h after inoculation) | Ergebnis der Reisolierung qualitiativ (+/-) nach Anreicherung ([4]; 72 h after inoculation) | Ergebnis der Reisolierung qualitiativ (+/-) nach Anreicherung ([5]; 2 h after inoculation) | Ergebnis der Reisolierung qualitiativ (+/-) nach Anreicherung ([5]; 4 h after inoculation) | Ergebnis der Reisolierung qualitiativ (+/-) nach Anreicherung ([5]; 6 h after inoculation) | Ergebnis der Reisolierung qualitiativ (+/-) nach Anreicherung ([5]; 8 h after inoculation) | Ergebnis der Reisolierung qualitiativ (+/-) nach Anreicherung ([5]; 24 h after inoculation) | Ergebnis der Reisolierung qualitiativ (+/-) nach Anreicherung ([5]; 32 h after inoculation) | Ergebnis der Reisolierung qualitiativ (+/-) nach Anreicherung ([5]; 48 h after inoculation) | Ergebnis der Reisolierung qualitiativ (+/-) nach Anreicherung ([5]; 72 h after inoculation) | Ergebnis der Reisolierung qualitiativ (+/-) nach Anreicherung ([6]; 2 h after inoculation) | Ergebnis der Reisolierung qualitiativ (+/-) nach Anreicherung ([6]; 4 h after inoculation) | Ergebnis der Reisolierung qualitiativ (+/-) nach Anreicherung ([6]; 6 h after inoculation) | Ergebnis der Reisolierung qualitiativ (+/-) nach Anreicherung ([6]; 8 h after inoculation) | Ergebnis der Reisolierung qualitiativ (+/-) nach Anreicherung ([6]; 24 h after inoculation) | Ergebnis der Reisolierung qualitiativ (+/-) nach Anreicherung ([6]; 32 h after inoculation) | Ergebnis der Reisolierung qualitiativ (+/-) nach Anreicherung ([6]; 48 h after inoculation) | Ergebnis der Reisolierung qualitiativ (+/-) nach Anreicherung ([6]; 72 h after inoculation) | Ergebnis der Reisolierung qualitiativ (+/-) nach Anreicherung ([11]; 2 h after inoculation) | Ergebnis der Reisolierung qualitiativ (+/-) nach Anreicherung ([11]; 4 h after inoculation) | Ergebnis der Reisolierung qualitiativ (+/-) nach Anreicherung ([11]; 6 h after inoculation) | Ergebnis der Reisolierung qualitiativ (+/-) nach Anreicherung ([11]; 24 h after inoculation) | Ergebnis der Reisolierung qualitiativ (+/-) nach Anreicherung ([11]; 32 h after inoculation) | Ergebnis der Reisolierung qualitiativ (+/-) nach Anreicherung ([11]; 48 h after inoculation) | Ergebnis der Reisolierung qualitiativ (+/-) nach Anreicherung ([11]; 72 h after inoculation)
+: Ergebnis der Reisolierung qualitiativ (+/-) nach Anreicherung ([3]; 2 h after inoculation) | Ergebnis der Reisolierung qualitiativ (+/-) nach Anreicherung ([3]; 4 h after inoculation) | Ergebnis der Reisolierung qualitiativ (+/-) nach Anreicherung ([3]; 6 h after inoculation) | Ergebnis der Reisolierung qualitiativ (+/-) nach Anreicherung ([4]; 2 h after inoculation) | Ergebnis der Reisolierung qualitiativ (+/-) nach Anreicherung ([4]; 4 h after inoculation) | Ergebnis der Reisolierung qualitiativ (+/-) nach Anreicherung ([4]; 6 h after inoculation) | Ergebnis der Reisolierung qualitiativ (+/-) nach Anreicherung ([4]; 8 h after inoculation)
- -: Ergebnis der Reisolierung qualitiativ (+/-) nach Anreicherung ([11]; 8 h after inoculation)
